Structures can show the parent of a compound that is named as a salt. Where two headings read alike, the source gives them in different places.
Experiments:
[1] = target: Human TGFβR-1 kinase (Homo sapiens (Human), UniProt P36897); test: In vitro enzyme assay: inhibition of TGFβR-1 kinase activity (ADP-Glo); assay type: biochemical
Description: In Vitro Enzyme Assay: Inhibition of TGFβR-1Kinase Activity
Human TGFβl R-1 inhibition experiments were carried out in a white 384-microplate low flange (Corning 3572) with ADP-Glo kinase Assay Kit (Promega V9101) and TGβR-1 Kinase Enzyme System (Promega V4092). […] The reaction mixture was incubated in gentle shaking for 120 min at RT, after incubation of 10 μL of ADP-Glo Reagent was added and incubated in gentle shaking for 40 min at RT. 20 μL of Kinase Detection Reagent was added and plate was incubated in gentle shaking for 30 min at RT. Luminiscence (1000 ms) was measured in Perkin Elmer EnSpire Multimode plate reader.

[2] = target: TGF-beta kinase (ALK-5) (Homo sapiens (Human), UniProt P36897); test: Determination of the intracellular TGF-beta kinase activity (ALK-5), p-SMAD3 AlphaLISA in A549 cells; assay type: cell-based; settings: A549 cell line
TGF-beta kinase (ALK-5), sequence (P36897 34-503): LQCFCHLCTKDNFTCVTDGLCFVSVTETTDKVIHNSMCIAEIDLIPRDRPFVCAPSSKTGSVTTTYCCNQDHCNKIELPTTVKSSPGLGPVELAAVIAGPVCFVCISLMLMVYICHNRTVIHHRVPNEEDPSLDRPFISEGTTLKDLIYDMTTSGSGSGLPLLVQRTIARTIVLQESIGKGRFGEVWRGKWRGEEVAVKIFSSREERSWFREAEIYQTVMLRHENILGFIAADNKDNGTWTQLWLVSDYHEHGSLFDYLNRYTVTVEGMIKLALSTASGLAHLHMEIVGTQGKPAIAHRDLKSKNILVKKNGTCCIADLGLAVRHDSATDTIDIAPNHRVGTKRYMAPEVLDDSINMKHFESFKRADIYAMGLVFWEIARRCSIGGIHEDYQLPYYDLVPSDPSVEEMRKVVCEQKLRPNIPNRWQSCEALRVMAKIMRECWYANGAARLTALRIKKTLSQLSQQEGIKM
Description: Determination of the Intracellular TGF-beta Kinase Activity (ALK-5)
The experiments were carried out in A549 cell line. 30000 cells were seeded in 200 μl of culture medium (Sigma D6046) supplemented with L-Glutamine (Sigma G7513), Penicillin/Streptomycin (Invitrogen 11058) and FBS (Sigma F9665) on a 96 wells microplate (Becton Dickinson 353072). After 16 hours medium waschanged to serum free medium.

[3] = Metabolic stability assay, human microsomes; assay type: in vitro ADME; settings: for microsomal CLint: human recombinant microsomes (Tebu-Xenotech)
Description: (§1) Metabolic Stability Assay
(§2) Human and rat recombinant microsomes from Tebu-Xenotech were employed in the assay. They content 0.5 mg/ml of protein. The following quantities were added to each well of a 96-well microplate.
(§3) Plates were incubated at 37° C. and 75 μL samples were taken at 0, 10, 20, 40 and 60 minutes. Samples were transferred to a microplate and 75 μl Acetonitrile were added for inactivating the microsomes, and 30 μl of H2O for improving the chromatographic conditions and kept at 4° C. When all the samples were taken the plate was centrifuged at […] for 30 min at 15° C. Supernatant was taken and injected in the UPLC-MS/MS.
(§4) Stationary phase: Reverse phase Acquity UPLC® BEH C18 1.7 μm (2.1 mm×50 mm) (Waters). Mobile phase: A: 0.1% formic; B:acetonitrile+0.1% formic acid. Flow: 0.6 ml/min. The chromatographic equipment employed was an UPLC QSM Waters Acquity. Compound concentrations were calculated from the UV peak areas. The response was linear in the range between 10 ng/ml and 0.3125 ng/ml. Metabolic stability was calculated from the logarithm of the remaining compound at each of the times evaluated.
(§5) The data will be fitted to the one phase exponential decay equation using GraphPad Prism® software. The half-life (t1/2) generated by the software will be reported. Intrinsic clearance will be calculated using the formula where, k=decay rate constant (min^−1).

[4] = Metabolic stability assay, rat microsomes; assay type: in vitro ADME; settings: for microsomal CLint: rat recombinant microsomes (Tebu-Xenotech), pH 7.4
Description: as §1, §2, §3, §4, §5

[5] = Identification study of metabolite; assay type: in vitro ADME
Source text: In an identification study of metabolite was identified Compound A. Said compound is 2-(3-(6-methylpyridin-2-yl)-4-(quinolin-4-yl)-1H-pyrazol-1-yl)acetic acid and has the following formula: […]
Compound A was identified as the major metabolite of examples 9, 15, 20, 22, 24 and 26, among others.

[6] = Plasma pharmacokinetic assay, single oral administration; assay type: in vivo, male Sprague Dawley rats; settings: male, Sprague-Dawley, po; rat, P.O., 5 mg/kg, plasma
Description: Plasma Pharmacokinetic Assay
The objective of this study was to investigate the plasma pharmacokinetics of some compounds of the present invention in male Sprague Dawley rats following a single oral administration. Three rats per compound were used in this study. Animals were administered with suspension formulation of each compound in 0.5% Tween-80 and 99.5% NaCMC (0.5% w/v in RO Water) by oral route at 5 mg/kg. The blood samples were collected from set of three rats at each time point in labelled micro centrifuge tube containing K2EDTA solution as anticoagulant at 0.25, 0.5, 1, 2, 4, 6, 8, 12 and 24 hr (p.o.). Plasma samples were separated by centrifugation of whole blood and stored below −70±10° C. until bioanalysis. All samples were processed for analysis by protein precipitation using acetonitrile and analysed with fit-for-purpose LC-MS/MS method (LLOQ=1.01 ng/mL). Pharmacokinetic parameters were calculated using the non-compartmental analysis tool of Phoenix WinNonlin® (Version 7.0).

[7] = TGFβR-1 kinase, 50 μM ATP, read-out: IC50 range
[8] = TGF-β2 activated, p-SMAD3, read-out: IC50 range

Human TGFβR-1 kinase, sequence (P36897 34-503): as above

O=C(Cn1cc(-c2ccnc3ccccc23)c(-c2ccccn2)n1)NCc1ccc(Cl)cc1 [Example 3, N-(4-chlorobenzyl)-2-(3-(pyridin-2-yl)-4-(quinolin-4-yl)-1H-pyrazol-1-yl)acetamide]
IC50 [1, 7]: 100 to 800 nM

CCc1ccccc1CNC(=O)Cn1cc(-c2ccnc3ccccc23)c(-c2cccc(C)n2)n1 [Example 27, N-(2-ethylbenzyl)-2-(3-(6-methylpyridin-2-yl)-4-(quinolin-4-yl)-1H-pyrazol-1-yl)acetamide]
IC50 [2, 8]: < 100 nM
IC50 [1, 7]: < 100 nM
% remanent (sampling time 60 min) [3]: 0.53%
microsomal CLint [3]: 505 µL/min/mg
% remanent (sampling time 60 min) [4]: 0.31%
microsomal CLint [4]: 600 µL/min/mg

O=C(Cn1cc(-c2ccnc3ccccc23)c(-c2ccccn2)n1)NCc1ccccc1F [Example 16, N-(2-fluorobenzyl)-2-(3-(pyridin-2-yl)-4-(quinolin-4-yl)-1H-pyrazol-1-yl)acetamide]
IC50 [1, 7]: 100 to 800 nM

O=C(Cn1cc(-c2ccnc3ccccc23)c(-c2ccccn2)n1)NCc1ccc(F)cc1 [Example 2, N-(4-fluorobenzyl)-2-(3-(pyridin-2-yl)-4-(quinolin-4-yl)-1H-pyrazol-1-yl)acetamide]
IC50 [1, 7]: 100 to 800 nM

Cc1ccc(CNC(=O)Cn2cc(-c3ccnc4ccccc34)c(-c3cccc(C)n3)n2)cc1 [Example 20, N-(4-methylbenzyl)-2-(3-(6-methylpyridin-2-yl)-4-(quinolin-4-yl)-1H-pyrazol-1-yl)acetamide]
IC50 [2, 8]: < 100 nM
IC50 [1, 7]: < 100 nM
% remanent (sampling time 60 min) [3]: 0.01%
microsomal CLint [3]: 216 µL/min/mg
% remanent (sampling time 60 min) [4]: 0.02%
microsomal CLint [4]: 381 µL/min/mg
Major metabolite identified [5]: Compound A

Cc1cccc(-c2nn(CC(=O)NCc3c(Cl)cccc3Cl)cc2-c2ccnc3ccccc23)n1 [Example 28, N-(2,6-dichlorobenzyI)-2-(3-(6-methylpyridin-2-yl)-4-(quinolin-4-yl)-1H-pyrazol-1-yl)acetamide]
IC50 [2, 8]: 100 to 500 nM
IC50 [1, 7]: < 100 nM

O=C(Cn1cc(-c2ccnc3ccccc23)c(-c2ccccn2)n1)NCc1c(F)cccc1F [Example 23, N-(2,6-difluorobenzyl)-2-(3-(pyridin-2-yl)-4-(quinolin-4-yl)-1H-pyrazol-1-yl)acetamide]
IC50 [1, 7]: 100 to 800 nM

Cc1cccc(C)c1CNC(=O)Cn1cc(-c2ccnc3ccccc23)c(-c2ccccn2)n1 [Example 25, N-(2,6-dimethylbenzyl)-2-(3-(pyridin-2-yl)-4-(quinolin-4-yl)-1H-pyrazol-1-yl)acetamide]
IC50 [1, 7]: < 100 nM

Cc1cccc(CNC(=O)Cn2cc(-c3ccnc4ccccc34)c(-c3ccccn3)n2)c1 [Example 10, N-(3-methylbenzyl)-2-(3-(pyridin-2-yl)-4-(quinolin-4-yl)-1H-pyrazol-1-yl)acetamide]
IC50 [1, 7]: 100 to 800 nM

Cc1ccccc1CNC(=O)Cn1cc(-c2ccnc3ccccc23)c(-c2ccccn2)n1 [Example 14, N-(2-methylbenzyl)-2-(3-(pyridin-2-yl)-4-(quinolin-4-yl)-1H-pyrazol-1-yl)acetamide]
IC50 [1, 7]: 100 to 800 nM

O=C(Cn1cc(-c2ccnc3ccccc23)c(-c2ccccn2)n1)NCc1ccc(C(=O)O)cc1 [Example 29, 4-((2-(3-(pyridin-2-yl)-4-(quinolin-4-yl)-1H-pyrazol-1-yl)acetamido)methyl)benzoic acid hydrochloride]
IC50 [1, 7]: 100 to 800 nM

Cc1cccc(-c2nn(CC(=O)NCc3ccccc3F)cc2-c2ccnc3ccccc23)n1 [Example 17, N-(2-fluorobenzyl)-2-(3-(6-methylpyridin-2-yl)-4-(quinolin-4-yl)-1H-pyrazol-1-yl)acetamide]
IC50 [1, 7]: 100 to 800 nM

Cc1cccc(-c2nn(CC(=O)NCc3ccccc3)cc2-c2ccnc3ccccc23)n1 [Example 9, N-benzyl-2-(3-(6-methylpyridin-2-yl)-4-(quinolin-4-yl)-1H-pyrazol-1-yl)acetamide]
AUC(0-inf) [6]: 27.7 ng·h/mL
AUC(0-t) [6]: 27 ng·h/mL
Cmax [6]: 62.8 ng/mL
Tmax [6]: 15 min
IC50 [2, 8]: < 100 nM
IC50 [1, 7]: < 100 nM
Major metabolite identified [5]: Compound A

CCc1cccc(-c2nn(CC(=O)NCc3ccccc3C)cc2-c2ccnc3ccccc23)n1 [Example 19, 2-(3-(6-ethylpyridin-2-yl)-4-(quinolin-4-yl)-1H-pyrazol-1-yl)-N-(2-methylbenzyl)acetamide]
IC50 [2, 8]: 100 to 500 nM
IC50 [1, 7]: < 100 nM

Cc1cccc(-c2nn(CC(=O)O)cc2-c2ccnc3ccccc23)n1 [Compound A, 2-(3-(6-methylpyridin-2-yl)-4-(quinolin-4-yl)-1H-pyrazol-1-yl)acetic acid]
IC50 ([2]; read-out: IC50 intracellular TGF-beta kinase activity (ALK-5)): > 5000 nM
IC50 ([1]; enzyme assay, read-out: IC50 against TGFβR-1): > 800 nM

Cc1ccc(CNC(=O)Cn2cc(-c3ccnc4ccccc34)c(-c3ccccn3)n2)cc1 [Example 7, N-(4-methylbenzyl)-2-(3-(pyridin-2-yl)-4-(quinolin-4-yl)-1H-pyrazol-1-yl)acetamide]
IC50 [1, 7]: 100 to 800 nM

O=C(Cn1cc(-c2ccnc3ccccc23)c(-c2ccccn2)n1)NCc1cccc(Cl)c1 [Example 12, N-(3-chlorobenzyl)-2-(3-(pyridin-2-yl)-4-(quinolin-4-yl)-1H-pyrazol-1-yl)acetamide]
IC50 [1, 7]: 100 to 800 nM

Cc1cccc(-c2nn(CC(=O)NCc3ccccc3C)cc2-c2ccnc3ccccc23)n1 [Example 15, N-(2-methylbenzyl)-2-(3-(6-methylpyridin-2-yl)-4-(quinolin-4-yl)-1H-pyrazol-1-yl)acetamide]
AUC(0-inf) [6]: 39.4 ng·h/mL
AUC(0-t) [6]: 35.1 ng·h/mL
Cmax [6]: 75.8 ng/mL
Tmax [6]: 15 min
IC50 [2, 8]: 100 to 500 nM
IC50 [1, 7]: < 100 nM
Major metabolite identified [5]: Compound A

CCc1cccc(-c2nn(CC(=O)NCc3ccccc3)cc2-c2ccnc3ccccc23)n1 [Example 18, N-benzyl-2-(3-(6-ethylpyridin-2-yl)-4-(quinolin-4-yl)-1H-pyrazol-1-yl)acetamide]
IC50 [1, 7]: < 100 nM

O=C(Cn1cc(-c2ccnc3ccccc23)c(-c2ccccn2)n1)NCc1ccccc1 [Example 1, N-benzyl-2-(3-(pyridin-2-yl)-4-(quinolin-4-yl)-1H-pyrazol-1-yl)acetamide]
IC50 [2, 8]: 100 to 500 nM
IC50 [1, 7]: < 100 nM

N#Cc1cccc(CNC(=O)Cn2cc(-c3ccnc4ccccc34)c(-c3ccccn3)n2)c1 [Example 13, N-(3-cyanobenzyl)-2-(3-(pyridin-2-yl)-4-(quinolin-4-yl)-1H-pyrazol-1-yl)acetamide]
IC50 [1, 7]: 100 to 800 nM

O=C(Cn1cc(-c2ccnc3ccccc23)c(-c2ccccn2)n1)NCc1ccccc1Cl [Example 21, N-(2-chlorobenzyl)-2-(3-(pyridin-2-yl)-4-(quinolin-4-yl)-1H-pyrazol-1-yl)acetamide]
IC50 [1, 7]: 100 to 800 nM

O=C(Cn1cc(-c2ccnc3ccccc23)c(-c2ccccn2)n1)NCc1ccc(Br)cc1 [Example 4, N-(4-bromobenzyl)-2-(3-(pyridin-2-yl)-4-(quinolin-4-yl)-1H-pyrazol-1-yl)acetamide]
IC50 [1, 7]: 100 to 800 nM

O=C(Cn1cc(-c2ccnc3ccccc23)c(-c2ccccn2)n1)NCc1cccc(F)c1 [Example 11, N-(3-fluorobenzyl)-2-(3-(pyridin-2-yl)-4-(quinolin-4-yl)-1H-pyrazol-1-yl)acetamide]
IC50 [1, 7]: 100 to 800 nM

Reference: patent publication US12297186B2, “Benzylamide derivatives as inhibitors of transforming growth factor-beta receptor I/ALK5” (AGOMAB SPAIN, S.L.U., priority 2019, dated 2025)
